Residues, ends and D or L forms follow the SMILES beside them. *: point of attachment. X1 = O=C1CCC(N2C(=O)c3cccc(*)c3C2=O)C(=O)N1; PEG4 = NCCOCCOCCOCCOCCC(=O)O
Test system: CD4+ and CD8+ lymphocytes
Assay: Ex vivo restimulation of splenocytes/lymph nodes from treated tumor-bearing mice with CA9 peptide, flow cytometry
Format: in vivo, Balb/C mice
Details: spleen and lymph nodes harvested on day 28, restimulated ex vivo with CA9 peptide
Procedure: FIGS. 4A-4D depict that PF enhanced the antitumor immunity provided by αPD1 or mTOR inhibition in mice. Mice tumors were established by injecting RENCA-CA9 cells subcutaneously in the flank (day 0) of Balb/C mice (6-8 mice per group). PF was administered i.p., twice a week, throughout the experiment, starting on day 10 (FIGS. 4A and 4C). αPD1 was administered i.p., twice a week, throughout the experiment, starting on days 5 (FIG. 4A). Splenocytes were harvested, and restimulated ex vivo with mouse CA9 peptide. The splenocytes were assessed by flow cytometry for Granzyme B, IFNγ or TNFα after gating on CD4 or CD8 (FIG. 4B). In a similar mouse tumor growth experiment, temsirolimus was administered i.p. on day 10, every other day, for 14 days (FIG. 4C). Similar to FIG. 4B, splenocytes were harvested, restimulated and analyzed (FIG. 4D). Representative results are shown for experiments conducted at least twice. […]
FIGS. 6A-6C depict that PF enhances immune activation and CD8+ memory lymphocyte formation. […] Spleen and lymph nodes were harvested on day 28 and restimulated ex vivo with CA9 peptide and assessed by flow cytometry (FIGS. 6B and 6C). CD8+ lymphocytes treated with PF had increased activation as measured by IFNγ or TNFα (FIG. 6B). […]
To assess T cells in mice, CD4+ FoxP3+ cells from serial peripheral blood draws were assessed by flow cytometry. […]

CSCC[C@H](NC(=O)[C@H](C)NC(=O)[C@H](Cc1ccccc1)NC(=O)[C@H](Cc1ccccc1)NC(=O)[C@@H]1CCCN1C(=O)[C@H](Cc1c[nH]c2ccccc12)NC(=O)[C@H](CCSC)NC(=O)[C@H](CCCCN)NC(=O)[C@H](CCCNC(=N)N)NC(=O)[C@H](Cc1ccccc1)NC(=O)[C@H](CO)NC(=O)[C@H](CCC(N)=O)NC(=O)[C@H](Cc1ccccc1)NC(=O)[C@H](CC(=O)O)NC(=O)[C@H](CCCNC(=N)N)NC(=O)CCOCCOCCOCCOCCNc1cccc2c1C(=O)N(C1CCC(=O)NC1=O)C2=O)C(=O)O (stereo partly shown) [PF, Pomalidomide-PEG4-RDFQSFRKMWPFFAM] ({X1-PEG4}-RDFQSFRKMWPFFAM-OH)
memory markers (CD62L, CD44 and Eomes) in CD8+ cells: displayed a memory phenotype with increase in CD62L, CD44 and Eomes expression

— patent publication US20250049930A1, “PROTAC MOLECULES TARGETING FOXP3 AND USES THEREOF” (CEDARS-SINAI MEDICAL CENTER, priority 2022, published 2025)
